Measured values from patent US20250152611A1, “IMMUNOMODULATORY LIPIDS AND USES THEREOF” (President and Fellows of Harvard College, priority 2022, published 2025).

Tests used:
TLR2-TLR1 heterodimers = TLR2-TLR1 heterodimers (Homo sapiens, UniProt O60603+Q15399); test: Potency comparison of TLR2-TLR1 agonists (EC50); assay type: cell-based; conditions: order of magnitude only
[1] = tested on: mouse bone marrow-derived dendritic cells (mBMDCs); test: mBMDC cytokine assay (wild-type cells; TNFα ELISA, cytometric bead array); assay type: cell-based; conditions: overnight, fractions or purified compounds at 50 μg/ml
Text: Previously, to identify immunoregulatory small molecules from gut microbes, an unbiased functional assay was employed using cytokine release from murine bone marrow-derived dendritic cells (mBMDCs) in response to fractionated bacterial extracts (7). Dendritic cells, which are part of the innate immune system, detect pathogen-associated molecules and relay information to the adaptive immune system through the release of cytokines. It was reasoned that the same approach would identify immunomodulatory molecules produced by A. muciniphila.
These assays were done as described previously (21). Femurs and tibias were collected from male or female wild-type, TLR2^−/−, or TLR4^−/− C57BL/6 mice that were at least 3-4 weeks old and preferably 7-12 weeks of age. The bone marrow was pushed from the bones using a needle and syringe of complete Dulbecco's Modified Eagle Medium (DMEM) (supplemented with Gibco GlutaMAX Supplement (35050061), Gibco Penicillin-Streptomycin (15140122), and 10% heat-inactivated fetal bovine serum (FBS)) and strained through a 70 μm nylon filter. […] Cells were counted and then plated at approximately 5 million cells per plate with ˜20-40 ng/ml RmGM-CSF (PreProTech 315-03). […] The resulting bone marrow derived dendritic cells (mBMDCs), were then scraped and counted again. […] Data was collected with NovoExpress 1.4.1 and analyzed using FlowJo v10.7.

Sequence of TLR2-TLR1 heterodimers (O60603 21-784): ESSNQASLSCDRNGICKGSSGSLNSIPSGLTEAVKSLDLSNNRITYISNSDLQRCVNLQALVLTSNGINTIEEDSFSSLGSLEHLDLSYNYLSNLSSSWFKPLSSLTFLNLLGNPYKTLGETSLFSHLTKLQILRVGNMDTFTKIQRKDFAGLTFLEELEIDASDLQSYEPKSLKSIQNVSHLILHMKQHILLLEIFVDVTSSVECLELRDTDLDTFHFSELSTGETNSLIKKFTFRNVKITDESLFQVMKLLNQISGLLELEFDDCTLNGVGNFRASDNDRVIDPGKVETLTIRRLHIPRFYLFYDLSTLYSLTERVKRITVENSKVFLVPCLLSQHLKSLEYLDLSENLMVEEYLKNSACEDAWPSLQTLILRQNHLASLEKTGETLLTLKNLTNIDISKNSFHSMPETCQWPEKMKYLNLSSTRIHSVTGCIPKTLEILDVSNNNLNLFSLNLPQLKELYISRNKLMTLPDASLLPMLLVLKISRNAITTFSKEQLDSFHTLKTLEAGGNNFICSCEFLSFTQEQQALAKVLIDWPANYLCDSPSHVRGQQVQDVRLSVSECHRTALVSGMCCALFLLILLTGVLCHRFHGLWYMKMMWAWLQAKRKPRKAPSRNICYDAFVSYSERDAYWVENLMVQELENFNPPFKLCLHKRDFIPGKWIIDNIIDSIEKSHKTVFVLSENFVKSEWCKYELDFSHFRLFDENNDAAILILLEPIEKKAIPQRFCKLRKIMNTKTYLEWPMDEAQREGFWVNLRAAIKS
Sequence of TLR2-TLR1 heterodimers (Q15399 25-786): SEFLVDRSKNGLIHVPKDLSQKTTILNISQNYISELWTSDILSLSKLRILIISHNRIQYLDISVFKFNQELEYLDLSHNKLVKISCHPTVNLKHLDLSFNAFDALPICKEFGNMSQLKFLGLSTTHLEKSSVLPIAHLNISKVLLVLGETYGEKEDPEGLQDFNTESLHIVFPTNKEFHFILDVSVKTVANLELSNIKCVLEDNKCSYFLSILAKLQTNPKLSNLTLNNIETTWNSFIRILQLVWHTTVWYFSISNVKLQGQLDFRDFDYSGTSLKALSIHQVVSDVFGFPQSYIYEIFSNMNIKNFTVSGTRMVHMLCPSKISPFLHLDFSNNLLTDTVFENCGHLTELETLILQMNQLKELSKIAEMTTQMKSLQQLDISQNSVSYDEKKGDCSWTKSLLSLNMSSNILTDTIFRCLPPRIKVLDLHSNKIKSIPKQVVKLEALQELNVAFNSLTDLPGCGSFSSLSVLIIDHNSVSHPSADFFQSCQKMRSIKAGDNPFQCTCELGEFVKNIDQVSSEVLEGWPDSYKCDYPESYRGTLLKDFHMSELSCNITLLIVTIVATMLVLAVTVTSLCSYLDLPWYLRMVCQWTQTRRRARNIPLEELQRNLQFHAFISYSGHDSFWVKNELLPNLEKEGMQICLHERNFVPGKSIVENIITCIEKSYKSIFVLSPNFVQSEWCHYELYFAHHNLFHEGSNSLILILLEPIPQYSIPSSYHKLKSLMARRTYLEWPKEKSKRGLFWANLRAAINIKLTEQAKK

Row | SMILES | EC50 values (TLR2-TLR1 heterodimers) | TNFα induction/production [1]
1 | CC[C@H](C)CCCCCCCCCCC(=O)OC[C@@H](COP(=O)(O)OCCN)OC(=O)CCCCCCCCCCCC(C)C [a15:0-i15:0 PE, 12-methyltetradecanoyl-13-methyltetradecanoyl-sn-glycero-3-phosphoethanolamine] | μM | 
2 | CCCCCCCCCCCCCC(=O)OC[C@H](COP(=O)(O)OCCN)OC(=O)CCCCCCCCCCCCC [n14:0-n14:0 PE] |  | no detectable TNFα induction
3 | CCCCCCCCCCCCCCCC(=O)OCC(COP(=O)(O)OCCN)OC(=O)CCCCCCCCCCCCCCC (stereo not drawn) [n16:0-n16:0 PE] |  | no detectable TNFα induction
